Experimental data reported in US8022209B2, “Substituted nitrogen-containing heteroaryl derivatives useful as modulators of the histamine H4 receptor” (Janssen Pharmaceutica NV, priority 2007, dated 2011).

Target: T1, human histamine H4 receptor (Homo sapiens, UniProt Q9H3N8)
T1 construct: expressed in transfected cells; host or cells: SK-N-MC cells or COS7 cells, transiently transfected with pH4R; cell membranes
Assay: Binding Assay on Recombinant Human Histamine H4 Receptor
Details: competition binding vs 3H-histamine (5 nM, KD 5 nM), membranes of SK-N-MC or COS7 cells transfected with human H4R; Cheng-Prusoff; average of results obtained
Protocol: Binding Assay on Recombinant Human Histamine H4 Receptor
SK-N-MC cells or COS7 cells were transiently transfected with pH4R and grown in 150 cm^2 tissue culture dishes. Cells were washed with saline solution, scraped with a cell scraper and collected by centrifugation (1000 rpm, 5 min). Cell membranes were prepared by homogenization of the cell pellet in 20 mM Tris-HCl with a polytron tissue homogenizer for 10 sec at high speed. Homogenate was centrifuged at 1000 rpm for 5 min at 4° C. The supernatant was then collected and centrifuged at 20,000×g for 25 min at 4° C. The final pellet was resuspended in 50 mM Tris-HCl. Cell membranes were incubated with ^3H-histamine (5-70 nM) in the presence or absence of excess histamine (10,000 nM). Incubation occurred at room temperature for 45 min. Membranes were harvested by rapid filtration over Whatman GF/C filters and washed 4 times with ice-cold 50 mM Tris HCl. Filters were then dried, mixed with scintillant and counted for radioactivity. SK-N-MC or COS7 cells expressing human histamine H4 receptor were used to measure the affinity of binding of other compounds and their ability to displace ^3H-ligand binding by incubating the above-described reaction in the presence of various concentrations of inhibitor or compound to be tested. For competition binding studies using ^3H-histamine, Ki values were calculated, based on an experimentally determined KD value of 5 nM and a ligand concentration of 5 nM, according to Y. C.

Row | Ki | SMILES
1 | 137 nM | CN1CCN(c2ncnc(-c3cc(Cl)cs3)n2)CC1 [compound 151, 2-(4-Chloro-thiophen-2-yl)-4-(4-methyl-piperazin-1-yl)-[1,3,5]triazine]
2 | 347 nM | CN1CCN(c2ncnc(-c3csc4ccccc34)n2)CC1 [compound 144, 2-Benzo[b]thiophen-3-yl-4-(4-methyl-piperazin-1-yl)-[1,3,5]triazine]
3 | 1510 nM | CN1CCN(c2ncnc(-c3cccc4ccccc34)n2)CC1 [compound 112, 2-(4-Methyl-piperazin-1-yl)-4-naphthalen-1-yl-[1,3,5]triazine]
4 | 857 nM | CN1CCN(c2ncnc(-c3ccccn3)n2)CC1 [compound 139, 2-(4-Methyl-piperazin-1-yl)-4-pyridin-2-yl-[1,3,5]triazine]
5 | 64 nM | Cc1cscc1-c1cc(N2CCN(C)CC2)ccn1 [compound 29]
6 | 193 nM | CN1CCN(c2ncnc(-c3cc(Cl)sc3Cl)n2)CC1 [compound 143, 2-(2,5-Dichloro-thiophen-3-yl)-4-(4-methyl-piperazin-1-yl)-[1,3,5]triazine]
7 | 867 nM | CN1CCC(N(C)c2ccnc(-c3ccsc3)c2)C1 (stereo not drawn) [compound 40]
8 | 31 nM | Cc1nc(-c2sccc2Br)nc(N2CCN(C)CC2)n1 [compound 23, 2-(3-Bromo-thiophen-2-yl)-4-methyl-6-(4-methyl-piperazin-1-yl)-[1,3,5]triazine]
9 | 433 nM | CN1CCCN(c2ccnc(-c3ccsc3)c2)CC1 [compound 39]
10 | 193 nM | Cc1nc(-c2cc(F)c(F)c(F)c2)nc(N2CCN(C)CC2)n1 [compound 147, 2-Methyl-4-(4-methyl-piperazin-1-yl)-6-(3,4,5-trifluoro-phenyl)-[1,3,5]triazine]
11 | 129 nM | Cc1ccc(-c2cc(N3CCN(C)CC3)ccn2)cc1 [compound 32]
12 | 94 nM | CN1CCN(c2ncnc(-c3ccc(F)cc3F)n2)CC1 [compound 122, 2-(2,4-Difluoro-phenyl)-4-(4-methyl-piperazin-1-yl)-[1,3,5]triazine]
13 | 90 nM | CN1CCN(c2ccnc(-c3ccc(F)c(F)c3)c2)CC1 [compound 34]
14 | 25 nM | CN1CCN(c2ccnc(-c3ccoc3)c2)CC1 [compound 28]
15 | 2600 nM | CN(C)CCN(C)c1ccnc(-c2ccsc2)c1 [compound 41]
16 | 130 nM | CN1CCN(c2ccnc(-c3cccc(Cl)c3Cl)c2)CC1 [compound 35]
17 | > 10000 nM | CN1CCN(c2ncnc(-c3ccc4ccccc4c3)n2)CC1 [compound 117, 2-(4-Methyl-piperazin-1-yl)-4-naphthalen-2-yl-[1,3,5]triazine]
18 | 66 nM | CN1CCN(c2ncnc(-c3ccc(Cl)s3)n2)CC1 [compound 25, 2-(5-Chloro-thiophen-2-yl)-4-(4-methyl-piperazin-1-yl)-[1,3,5]triazine]
19 | 107 nM | CN1CCN(c2ccnc(-c3sccc3Cl)c2)CC1 [compound 148]
20 | 767 nM | CN(C)C1CCN(c2ccnc(-c3ccsc3)c2)C1 (stereo not drawn) [compound 42]
21 | 78 nM | CN1CCN(c2ncnc(-c3cc(F)cc(F)c3)n2)CC1 [compound 137, 2-(3,5-Difluoro-phenyl)-4-(4-methyl-piperazin-1-yl)-[1,3,5]triazine]
22 | 107 nM | CN1CCN(c2ncnc(-c3ccc([N+](=O)[O-])cc3)n2)CC1 [compound 121, 2-(4-Methyl-piperazin-1-yl)-4-(4-nitro-phenyl)-[1,3,5]triazine]
23 | 443 nM | CN1CCN(c2ccnc(-c3csc(C#N)c3)c2)CC1 [compound 129]
24 | 87 nM | CN1CCN(c2ccnc(-c3ccco3)c2)CC1 [compound 27]

The remaining lines, values behind:

Row | SMILES | Ki
25 | Cc1ccc(-c2ncnc(N3CCN(C)CC3)n2)cc1F [compound 3, 2-(3-Fluoro-4-methyl-phenyl)-4-(4-methyl-piperazin-1-yl)-[1,3,5]triazine] | 22 nM
26 | CN1CCN(c2ncnc(-c3ccc(F)c(F)c3)n2)CC1 [compound 5, 2-(3,4-Difluoro-phenyl)-4-(4-methyl-piperazin-1-yl)-[1,3,5]triazine] | 33 nM
27 | CN1CCN(c2ncnc(-c3cc(F)c(F)c(F)c3)n2)CC1 [compound 11, 2-(4-Methyl-piperazin-1-yl)-4-(3,4,5-trifluoro-phenyl)-[1,3,5]triazine] | 7 nM
28 | CN1CCN(c2ncnc(-c3cccc(C#N)c3)n2)CC1 [compound 111, 3-[4-(4-Methyl-piperazin-1-yl)-[1,3,5]triazin-2-yl]-benzonitrile] | 2010 nM
29 | CN1CCN(c2ncnc(-c3ccoc3)n2)CC1 [compound 6, 2-Furan-3-yl-4-(4-methyl-piperazin-1-yl)-[1,3,5]triazine] | 115 nM
30 | CN1CCN(c2ncnc(-c3cc4ccccc4s3)n2)CC1 [compound 21, 2-Benzo[b]thiophen-2-yl-4-(4-methyl-piperazin-1-yl)-[1,3,5]triazine] | 2330 nM
31 | CN1CCN(c2ncnc(-c3cccnc3)n2)CC1 [compound 19, 2-(4-Methyl-piperazin-1-yl)-4-pyridin-3-yl-[1,3,5]triazine] | 172 nM
32 | CN1CCN(c2ccnc(-c3cccc(-c4ccc(C(=O)N5CCOCC5)cc4)c3)c2)CC1 [compound 63] | ≥ 10000 nM
33 | Cc1cc(-c2ncnc(N3CCN(C)CC3)n2)c(C(F)(F)F)o1 [compound 22, 2-(4-Methyl-piperazin-1-yl)-4-(5-methyl-2-trifluoromethyl-furan-3-yl)-[1,3,5]triazine] | 757 nM
34 | CN1CCN(c2ncnc(-c3ccc(Cl)c(Cl)c3)n2)CC1 [compound 14, 2-(3,4-Dichloro-phenyl)-4-(4-methyl-piperazin-1-yl)-[1,3,5]triazine] | 30 nM
35 | CN1CCN(c2ncnc(-c3sccc3Br)n2)CC1 [compound 15, 2-(3-Bromo-thiophen-2-yl)-4-(4-methyl-piperazin-1-yl)-[1,3,5]triazine] | 2 nM
36 | CN1CCN(c2ncnc(-c3cccs3)n2)CC1 [compound 2, 2-(4-Methyl-piperazin-1-yl)-4-thiophen-2-yl-[1,3,5]triazine] | 76 nM
37 | CN1CCN(c2ncnc(-c3ccc(F)cc3)n2)CC1 [compound 12, 2-(4-Fluoro-phenyl)-4-(4-methyl-piperazin-1-yl)-[1,3,5]triazine] | 35 nM
38 | CN1CCN(c2ncnc(-c3ccc(Cl)cc3)n2)CC1 [compound 13, 2-(4-Chloro-phenyl)-4-(4-methyl-piperazin-1-yl)-[1,3,5]triazine] | 10 nM
39 | CNC1CCN(c2ccnc(-c3ccsc3)c2)C1 (stereo not drawn) [compound 66] | 216 nM
40 | CN1CCN(c2ncnc(-c3ccc(-c4ccccn4)s3)n2)CC1 [compound 131, 2-(4-Methyl-piperazin-1-yl)-4-(5-pyridin-2-yl-thiophen-2-yl)-[1,3,5]triazine] | > 10000 nM
41 | CN1CCN(c2ncnc(-c3ccc(Cl)nc3)n2)CC1 [compound 16, 2-(6-Chloro-pyridin-3-yl)-4-(4-methyl-piperazin-1-yl)-[1,3,5]triazine] | 50 nM
42 | CN1CCN(c2ncnc(-c3sccc3Cl)n2)CC1 [compound 17, 2-(3-Chloro-thiophen-2-yl)-4-(4-methyl-piperazin-1-yl)-[1,3,5]triazine] | 8 nM
